Experimental data from patent US10689354B2, “Aminoazole derivative” (Teijin Pharma Limited, priority 2015, dated 2020).

Columns and labels:
[1] = molecular target: T1, androgen receptor (AR-LBD) (Rattus norvegicus, UniProt P15207); assay: Evaluation of androgen receptor affinity (PolarScreen Androgen Receptor Competitor Assay Kit, Red; fluorescence polarization); settings: 22° C. for 5 hours, relative to binding rate of 1 μM DHT, read-out: AR affinity (pEC50) (converted)
T1 construct: 5 μL of 2×AR-LBD/Fluoromone AL Red Complex contained in the kit; purchased Invitrogen
T1 sequence (P15207 651-882 limits assumed): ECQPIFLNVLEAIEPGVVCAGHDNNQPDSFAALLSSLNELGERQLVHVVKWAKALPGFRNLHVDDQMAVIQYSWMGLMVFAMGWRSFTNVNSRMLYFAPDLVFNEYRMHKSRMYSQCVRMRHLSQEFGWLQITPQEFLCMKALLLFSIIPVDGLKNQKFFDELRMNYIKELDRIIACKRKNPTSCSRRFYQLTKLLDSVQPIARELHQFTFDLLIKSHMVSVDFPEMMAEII
Summary of the method: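 FP competition: compound + AR-LBD/Fluoromone AL Red tracer complex, 22° C, 5 h. Reference 1 μM DHT binding rate; pEC50 by 4-parameter fit.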

human androgen receptor = molecular target: T2, human androgen receptor (Homo sapiens, UniProt P10275); assay: Reporter assay of an androgen receptor responsive sequence (luciferase, transiently transfected HEK293 cells); format: cell-based; settings: 24 hours incubation, relative to activity of 100 nM DHT, read-out: AR transcriptive activity (pEC50) (converted)
T2 construct: expressed in transfected cells; host or cells: HEK293
T2 sequence (P10275 1-920): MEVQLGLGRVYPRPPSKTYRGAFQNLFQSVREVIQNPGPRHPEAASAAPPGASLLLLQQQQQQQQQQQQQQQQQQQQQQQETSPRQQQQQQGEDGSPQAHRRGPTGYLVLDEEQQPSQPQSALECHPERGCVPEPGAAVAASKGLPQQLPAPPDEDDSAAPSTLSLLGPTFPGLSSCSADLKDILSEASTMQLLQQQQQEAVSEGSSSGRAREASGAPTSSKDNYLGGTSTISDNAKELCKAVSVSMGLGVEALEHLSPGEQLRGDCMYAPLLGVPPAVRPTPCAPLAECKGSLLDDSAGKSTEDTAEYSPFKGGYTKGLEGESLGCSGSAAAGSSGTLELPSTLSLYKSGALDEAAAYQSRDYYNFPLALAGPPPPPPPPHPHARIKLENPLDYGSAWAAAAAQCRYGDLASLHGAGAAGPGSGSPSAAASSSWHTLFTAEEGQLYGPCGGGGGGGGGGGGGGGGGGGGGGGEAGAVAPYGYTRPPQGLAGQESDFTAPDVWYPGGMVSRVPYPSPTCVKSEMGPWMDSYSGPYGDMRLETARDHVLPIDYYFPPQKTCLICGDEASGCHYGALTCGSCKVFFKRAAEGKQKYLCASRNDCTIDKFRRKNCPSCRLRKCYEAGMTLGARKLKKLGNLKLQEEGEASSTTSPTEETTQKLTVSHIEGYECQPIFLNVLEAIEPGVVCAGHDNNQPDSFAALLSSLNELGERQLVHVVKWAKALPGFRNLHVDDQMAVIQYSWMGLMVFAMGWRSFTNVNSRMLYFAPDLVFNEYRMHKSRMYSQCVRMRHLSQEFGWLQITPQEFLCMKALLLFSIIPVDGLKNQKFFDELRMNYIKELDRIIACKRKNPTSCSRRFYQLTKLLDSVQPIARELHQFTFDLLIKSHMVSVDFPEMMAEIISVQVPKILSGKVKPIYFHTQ
Summary of the method: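 Agonism scored as pEC50, fitted by 4-parameter curve against the response to 100 nM DHT, from dual-luciferase readout after 24 h compound treatment. Cells were HEK293 co-transfected (3 h) with human AR expression vector, androgen-responsive firefly reporter and Renilla control, in charcoal-stripped serum.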

| SMILES | EC50 [1] | EC50 (human androgen receptor) |
| --- | --- | --- |
| Cc1sc(N(CCn2cc(C#N)cn2)Cc2ccc(Cl)cc2)nc1C(=O)NS(C)(=O)=O [Compound 736, 2-[(4-chlorophenyl)methyl-[2-(4-cyanopyrazol-1-yl)ethyl]amino]-5-methyl-N-methylsulfonyl-thiazole-4-carboxamide] | 0.2 µM | 0.501 µM |
| CNC(=O)c1ccc(CCN(Cc2ccccc2)c2nc(C(=O)NS(C)(=O)=O)c(C)s2)cc1 [Compound 738, 2-[benzyl-[2-[4-(methylcarbamoyl)phenyl]ethyl]amino]-5-methyl-N-methylsulfonyl-thiazole-4-carboxamide] | 0.501 µM | 6.31 µM |
| COCCCS(=O)(=O)NC(=O)c1nc(N(CCc2ccc(C#N)cc2)Cc2ccc(Cl)cc2)sc1C [Compound 739, 2-[(4-chlorophenyl)methyl-[2-(4-cyanophenyl)ethyl]amino]-N-(3-methoxypropylsulfonyl)-5-methyl-thiazole-4-carboxamide] | 0.0316 µM | 0.251 µM |
| COCCCS(=O)(=O)NC(=O)c1nc(N(CCc2ccc(C#N)cc2)Cc2ccc(OC(F)(F)F)cc2)sc1C [Compound 740, 2-[2-(4-cyanophenyl)ethyl-[[4-(trifluoromethoxy)phenyl]methyl]amino]-N-(3-methoxypropylsulfonyl)-5-methyl-thiazole-4-carboxamide] | 0.0251 µM | 1 µM |
| Cc1sc(N(CCc2ccc(C#N)cc2)Cc2ccc(Cl)cc2)nc1C(=O)NS(=O)(=O)Cc1ccncc1 [Compound 741, 2-[(4-chlorophenyl)methyl-[2-(4-cyanophenyl)ethyl]amino]-5-methyl-N-(4-pyridylmethylsulfonyl)thiazole-4-carboxamide] | 0.0251 µM | 0.158 µM |
| Cc1sc(N(CCc2ccc(C#N)cc2)Cc2ccc(OC(F)(F)F)cc2)nc1C(=O)NS(=O)(=O)Cc1ccncc1 [Compound 742, 2-[2-(4-cyanophenyl)ethyl-[[4-(trifluoromethoxy)phenyl]methyl]amino]-5-methyl-N-(4-pyridylmethylsulfonyl)thiazole-4-carboxamide] | 0.0251 µM | 2 µM |
| Cc1sc(N(Cc2ccccc2)c2ccc3nccnc3c2)nc1C(=O)NS(C)(=O)=O [Compound 744, 2-[benzyl(quinoxalin-6-yl)amino]-5-methyl-N-methylsulfonyl-thiazole-4-carboxamide] | 0.316 µM | 1.26 µM |
| COCCCS(=O)(=O)NC(=O)c1nc(N(Cc2ccc(OC(F)F)cc2)c2ccc(C#N)cc2)sc1C [Example 165, 2-[4-cyano-N-[[4-(difluoromethoxy)phenyl]methyl]anilino]-N-(3-methoxypropylsulfonyl)-5-methyl-thiazole-4-carboxamide] | 0.0501 µM | 0.158 µM |
| COCCCS(=O)(=O)NC(=O)c1nc(N(Cc2ccc(Cl)cc2)c2ccc(C#N)cc2)sc1C [Example 166, 2-[N-[(4-chlorophenyl)methyl]-4-cyano-anilino]-N-(3-methoxypropylsulfonyl)-5-methyl-thiazole-4-carboxamide] | 0.0251 µM | 0.0794 µM |
| Cc1sc(N(Cc2ccc(C(F)(F)F)c(F)c2)c2ccc(C#N)cc2)nc1C(=O)NS(C)(=O)=O [Example 167, 2-[4-cyano-N-[[3-fluoro-4-(trifluoromethyl)phenyl]methyl]anilino]-5-methyl-N-methylsulfonyl-thiazole-4-carboxamide] | 0.0251 µM | 0.0316 µM |
| Cc1sc(N(Cc2ncc(Cl)cc2F)c2ccc(C#N)cc2)nc1C(=O)NS(C)(=O)=O [Example 168, 2-[N-[(5-chloro-3-fluoro-2-pyridyl)methyl]-4-cyano-anilino]-5-methyl-N-methylsulfonyl-thiazole-4-carboxamide] | 0.1 µM | 0.2 µM |
| COCCCS(=O)(=O)NC(=O)c1nc(N(Cc2ncc(Cl)cc2F)c2ccc(C#N)cc2)sc1C [Example 169, 2-[N-[(5-chloro-3-fluoro-2-pyridyl)methyl]-4-cyano-anilino]-N-(3-methoxypropylsulfonyl)-5-methyl-thiazole-4-carboxamide] | 0.2 µM | 0.501 µM |
| Cc1sc(N(Cc2ncc(C(F)(F)F)cc2F)c2ccc(C#N)cc2)nc1C(=O)NS(C)(=O)=O [Example 170, 2-[4-cyano-N-[[3-fluoro-5-(trifluoromethyl)-2-pyridyl]methyl]anilino]-5-methyl-N-methylsulfonyl-thiazole-4-carboxamide] | 0.0631 µM | 0.2 µM |
| COCCCS(=O)(=O)NC(=O)c1nc(N(Cc2ncc(C(F)(F)F)cc2F)c2ccc(C#N)cc2)sc1C [Example 171, 2-[4-cyano-N-[[3-fluoro-5-(trifluoromethyl)-2-pyridyl]methyl]anilino]-N-(3-methoxypropylsulfonyl)-5-methyl-thiazole-4-carboxamide] | 0.126 µM | 0.631 µM |
| Cc1sc(N(Cc2ccc(OC(F)F)c(F)c2)c2ccc(C#N)cc2)nc1C(=O)NS(C)(=O)=O [Example 172, 2-[4-cyano-N-[[4-(difluoromethoxy)-3-fluoro-phenyl]methyl]anilino]-5-methyl-N-methylsulfonyl-thiazole-4-carboxamide] | 0.0316 µM | 0.0316 µM |
| Cc1sc(N(Cc2ccc(F)c(C(F)(F)F)c2)c2ccc(C#N)cc2)nc1C(=O)NS(C)(=O)=O [Example 173, 2-[4-cyano-N-[[4-fluoro-3-(trifluoromethyl)phenyl]methyl]anilino]-5-methyl-N-methylsulfonyl-thiazole-4-carboxamide] | 0.0251 µM | 0.0794 µM |
| Cc1sc(N(Cc2cc(F)cc3cccnc23)c2ccc(C#N)cc2)nc1C(=O)NS(C)(=O)=O [Example 174, 2-[4-cyano-N-[(6-fluoro-8-quinolyl)methyl]anilino]-5-methyl-N-methylsulfonyl-thiazole-4-carboxamide] | 0.1 µM | 0.316 µM |
| Cc1sc(N(Cc2ccc(F)c3cccnc23)c2ccc(C#N)cc2)nc1C(=O)NS(C)(=O)=O [Example 175, 2-[4-cyano-N-[(5-fluoro-8-quinolyl)methyl]anilino]-5-methyl-N-methylsulfonyl-thiazole-4-carboxamide] | 0.0794 µM | 0.126 µM |
| Cc1sc(N(Cc2ccc(F)cc2OC(F)F)c2ccc(C#N)cc2)nc1C(=O)NS(C)(=O)=O [Example 176, 2-[4-cyano-N-[[2-(difluoromethoxy)-4-fluoro-phenyl]methyl]anilino]-5-methyl-N-methylsulfonyl-thiazole-4-carboxamide] | 0.0631 µM | 0.501 µM |
| Cc1sc(N(Cc2ccc(F)cc2Br)c2ccc(C#N)cc2)nc1C(=O)NS(C)(=O)=O [Example 177, 2-[N-[(2-bromo-4-fluoro-phenyl)methyl]-4-cyano-anilino]-5-methyl-N-methylsulfonyl-thiazole-4-carboxamide] | 0.0794 µM | 0.501 µM |
| Cc1sc(N(Cc2ccc(OC(F)(F)F)cc2F)c2ccc(C#N)cc2)nc1C(=O)NS(C)(=O)=O [Example 178, 2-[4-cyano-N-[[2-fluoro-4-(trifluoromethoxy)phenyl]methyl]anilino]-5-methyl-N-methylsulfonyl-thiazole-4-carboxamide] | 0.0398 µM | 0.501 µM |
| Cc1sc(N(Cc2ncc(F)cc2Cl)c2ccc(C#N)cc2)nc1C(=O)NS(C)(=O)=O [Example 179, 2-[N-[(3-chloro-5-fluoro-2-pyridyl)methyl]-4-cyano-anilino]-5-methyl-N-methylsulfonyl-thiazole-4-carboxamide] | 0.501 µM | 1 µM |
| Cc1sc(N(Cc2ncc(Cl)cc2Cl)c2ccc(C#N)cc2)nc1C(=O)NS(C)(=O)=O [Example 180, 2-[4-cyano-N-[(3,5-dichloro-2-pyridyl)methyl]anilino]-5-methyl-N-methylsulfonyl-thiazole-4-carboxamide] | 0.251 µM | 0.501 µM |
